Assay results: US10000479B2, “Compounds and their methods of use” (AGIOS PHARMACEUTICALS, INC., priority 2014, dated 2018)

Target: T1, glutaminase (GAC) (Homo sapiens, UniProt O94925)
T1 sequence (O94925 55-598 isoform O94925-3 limits assumed): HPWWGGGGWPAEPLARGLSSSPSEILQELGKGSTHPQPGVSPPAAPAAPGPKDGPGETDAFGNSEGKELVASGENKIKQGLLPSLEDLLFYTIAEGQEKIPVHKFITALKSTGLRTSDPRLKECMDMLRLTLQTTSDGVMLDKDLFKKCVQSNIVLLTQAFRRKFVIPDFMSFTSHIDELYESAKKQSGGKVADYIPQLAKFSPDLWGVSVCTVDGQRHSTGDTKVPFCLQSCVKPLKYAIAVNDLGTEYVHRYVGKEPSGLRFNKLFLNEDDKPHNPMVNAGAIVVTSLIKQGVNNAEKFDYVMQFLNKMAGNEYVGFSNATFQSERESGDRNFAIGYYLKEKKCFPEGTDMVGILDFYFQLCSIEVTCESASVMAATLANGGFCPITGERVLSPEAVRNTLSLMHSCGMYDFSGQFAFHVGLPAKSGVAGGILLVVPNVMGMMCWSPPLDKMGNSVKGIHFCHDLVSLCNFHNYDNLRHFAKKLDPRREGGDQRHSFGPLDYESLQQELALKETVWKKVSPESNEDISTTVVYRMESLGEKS
Test: glutaminase coupled endpoint assay (Example A)
Type: biochemical
Details: inhibition of glutaminase; assay of Example A or Example B
Procedure: In this example, the enzymatic activity of glutaminase is measured through a coupled endpoint assay. Glutamine and phosphate are supplied to GAC at a concentration equal to Km and AC50, respectively, and GAC concentration is adjusted to give a linear reaction for 60 minutes. The glutamate produced is converted to 2-OG by a kinetic excess of glutamate dehydrogenase. This second step is configured for 2× Km for NAD, since excess NAD is inhibitory. However, a kinetic excess of the third coupling enzyme, diaphorase, recycles NAD from NADH to keep the NAD concentration constant during the timecourse of the assay. Diaphorase, also supplied in kinetic excess, oxidizes NADH produced by GDH back to NAD with the concomitant reduction of rezasurin to the highly fluorescent resorufin. Resorufin in measured after the assay is stopped with SDS by Ex544/Em590. A reduction in the signal indicates inhibition of some component of the coupled enzyme system. Prospective hits are counterscreened against GDH/diaphorase alone to remove hits to the coupling enzyme system in a second assay.
2. Buffers • 2× Buffer (300 mM NaCl, 100 mM HEPES pH 8.5, 0.1% BSA, 0.5 mM EDTA, 100 mM sodium phosphate pH 8.5) • 5× Substrate Mix (1× Buffer final concentration, with 13 mM glutamine, 100 μM resazurin, 50 μg/ml diaphorase) • 1.2× Enzyme Mix (1× Buffer final concentration, with 0.875 μg/ml GAC, 1.56 mM NAD, 6.25 units/ml GDH) • Stop Mix (6% SDS in ddH20) Reaction Procedure • 1. Add 1 μl compound in 100% DMSO • 2. Add 40 μl of Enzyme Mix and incubate for 60 minute at room temperature • 3. Add 10 μl of Substrate Mix to start reaction • 4. Stop reaction with 25 μl of 6% SDS and read Ex544 Em 590
A compound described herein may be tested for its ability to inhibit glutaminase, e.g., by an assay as described in the Examples. For simplicity, the inhibition activity of these compounds is represented as an IC50 tested in an assay of Example A or Example B in Table 1. As shown, “A” refers to an inhibitor of glutaminase with an IC50<100 nM. “B” refers to inhibitor of glutaminase with an IC50 between 100 nM and 500 nM. “C” refers to inhibitor of glutaminase with an IC50 between 500 nM and 1000 nM. “D” refers to inhibitor of glutaminase with an IC50 between 1 μM and 2 μM. “E” refers to inhibitor of glutaminase with an IC50 between 2 μM and 10 μM. “N/A” refers to compounds wherein the IC50 is unavailable.

SMILES | IC50 [nM]
O=C(Cc1ccccn1)Nc1ccc([C@@H]2CCC[C@@H](c3ccc(NC(=O)Cc4ccccn4)nn3)C2)nn1 (racemic) [Compound 14, Trans-(rac)-N,N′-(6,6′-(cyclohexane-1,3-diyl)bis(pyridazine-6,3-diyl))bis(2-(pyridin-2-yl)acetamide)] | < 100
CC(=O)Nc1ccc([C@H]2CCC[C@H](c3ccc(NC(C)=O)nn3)C2)nn1 (racemic) [Compound 41, Trans-(rac)-N,N′-(6,6′-(cyclohexane-1,3-diyl)bis(pyridazine-6,3-diyl))diacetamide] | 2000 to 10000
O=C(Cc1ccc(OC(F)(F)F)cc1)Nc1ccc([C@H]2CCC[C@H](c3ccc(NC(=O)Cc4ccc(OC(F)(F)F)cc4)nn3)C2)nn1 (racemic) [Compound 75, Trans-(rac)-N,N′-(6,6′-(cyclohexane-1,3-diyl)bis(pyridazine-6,3-diyl))bis(2-(4-(trifluoromethoxy)phenyl)acetamide)] | 2000 to 10000
O=C(Cc1ccccc1)Nc1ccc([C@@H]2CCC[C@H](c3ccc(NC(=O)Cc4ccccc4)nn3)C2)nn1 [Compound 10, N,N′-(6,6′-((1R,3S)-cyclohexane-1,3-diyl)bis(pyridazine-6,3-diyl))bis(2-phenylacetamide)] | < 100
O=C(Cc1ccccn1)Nc1ccc([C@@H]2CCC[C@H](c3ccc(NC(=O)Cc4ccccn4)nn3)C2)nn1 [Compound 20, N,N′-(6,6′-((1R,3S)-Cyclohexane-1,3-diyl)bis(pyridazine-6,3-diyl))bis(2-(pyridin-2-yl)acetamide)] | < 100
CCCC(=O)Nc1ccc([C@@H]2CCC[C@H](c3ccc(NC(=O)CCC)nn3)C2)nn1 [Compound 37, N,N′-(6,6′-((1R,3S)-Cyclohexane-1,3-diyl)bis(pyridazine-6,3-diyl))dibutyramide] | < 100
CC(C)C(=O)Nc1ccc([C@@H]2CCC[C@H](c3ccc(NC(=O)C(C)C)nn3)C2)nn1 [Compound 98, N,N′-(6,6′-((1R,3S)-Cyclohexane-1,3-diyl)bis(pyridazine-6,3-diyl))bis(2-methylpropanamide)] | 100 to 500
CC(=O)Nc1ccc([C@@H]2CCC[C@H](c3ccc(NC(C)=O)nn3)C2)nn1 [Compound 99, N,N′-(6,6′-((1R,3S)-Cyclohexane-1,3-diyl)bis(pyridazine-6,3-diyl))diacetamide] | < 100
CCC(=O)Nc1ccc([C@@H]2CCC[C@H](c3ccc(NC(=O)CC)nn3)C2)nn1 [Compound 152, N,N′-(6,6′-((1R,3S)-Cyclohexane-1,3-diyl)bis(pyridazine-6,3-diyl))dipropionamide] | < 100
O=C(Cc1ccccn1)Nc1ccc(C2CCC(c3ccc(NC(=O)Cc4ccccn4)nn3)C2)nn1 (stereo not shown) [Compound 175, N, N′-(6,6′-(Cyclopentane-1,3-diyl)bis(pyridazine-6,3-diyl))bis(2-(pyridin-2-yl)acetamide)] | < 100
O=C(Nc1ccc([C@@H]2CCC[C@H](c3ccc(NC(=O)OCc4ccccc4)nn3)C2)nn1)OCc1ccccc1 [Compound 176, Dibenzyl (6,6′-((1R,3S)-cyclohexane-1,3-diyl)bis(pyridazine-6,3-diyl))dicarbamate] | < 100
O=C(Cc1cccc(OC(F)(F)F)c1)Nc1ccc([C@@H]2CCC[C@H](c3ccc(NC(=O)Cc4cccc(OC(F)(F)F)c4)nn3)C2)nn1 [Compound 180] | 100 to 500
O=C(Cc1ccccc1)Nc1ccc([C@H]2CCC[C@@H](c3nnc(NC(=O)Cc4ccccc4)s3)C2)nn1 [Compound 291, 2-Phenyl-N-(6-((1S,3R)-3-(5-(2-phenylacetamido)-1,3,4-thiadiazol-2-yl)cyclohexyl)pyridazin-3-yl)acetamide] | < 100
